Measured values taken from the supplement of paper PMC10307832.

What was measured:
Experiment in all cases: relative viability (nuclei count vs DMSO), 5 days (fraction); higher = more cells survive
NCI-H1355 = tested on: NCI-H1355
How it was run: (§1)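 Cells from lung cancer lines were seeded into 1536-well plates and, one day later, dosed by pin tool. Treatments were either a single drug or a fixed dose of an anchor drug with five library-drug doses (not always all listed) in √10 steps. After 5 days, nuclei were stained in a one-step fixation (final 0.05% Triton X-100, 1% formaldehyde, 1 ug/ml Hoechst) and counted on 4× images, and relative viability is the treated-to-vehicle nuclei ratio, as the median of duplicate plates.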

HCC-366 = tested on: HCC-366
How it was run: as §1

NCI-H2009 = tested on: NCI-H2009
How it was run: as §1

NCI-H2228 = tested on: NCI-H2228
How it was run: as §1

HCC-44 = tested on: HCC-44
How it was run: as §1

NCI-H596 = tested on: NCI-H596
How it was run: as §1

NCI-H2342 = tested on: NCI-H2342
How it was run: as §1

SK-MES-1 = tested on: SK-MES-1
How it was run: as §1

NCI-H647 = tested on: NCI-H647
How it was run: as §1

NCI-H1734 = tested on: NCI-H1734
How it was run: as §1

SK-LU-1 = tested on: SK-LU-1
How it was run: as §1

NCI-H2087 = tested on: NCI-H2087
How it was run: as §1

HARA = tested on: HARA
How it was run: as §1

NCI-H1395 = tested on: NCI-H1395
How it was run: as §1

NCI-H661 = tested on: NCI-H661
How it was run: as §1

NCI-H2170 = tested on: NCI-H2170
How it was run: as §1

NCI-H1437 = tested on: NCI-H1437
How it was run: as §1

LC-2-ad = tested on: LC-2-ad
How it was run: as §1

LOU-NH91 = tested on: LOU-NH91
How it was run: as §1

NCI-H2405 = tested on: NCI-H2405
How it was run: as §1

BEN = tested on: BEN
How it was run: as §1

HCC-827 = tested on: HCC-827
How it was run: as §1

EKVX = tested on: EKVX
How it was run: as §1

## COc1cc(N2CCC(C(N)=O)CC2)ccc1Nc1nc(N)c(Cl)c(Nc2ccccc2S(=O)(=O)C(C)C)n1 [HG-5-88-01] + O=C(CCCCCCC(=O)Nc1ccccc1)NO [Vorinostat] (partner 1 µM)
NCI-H1355; first compound 0.04 µM
  relative viability: 0.59
NCI-H1355; first compound 0.1265 µM
  relative viability: 0.62
NCI-H1355; first compound 0.4 µM
  relative viability: 0.626
NCI-H1355; first compound 1.265 µM
  relative viability: 0.587
NCI-H1355; first compound 4 µM
  relative viability: 0.399
HCC-366; first compound 0.04 µM
  relative viability: 0.438
HCC-366; first compound 0.1265 µM
  relative viability: 0.452
HCC-366; first compound 0.4 µM
  relative viability: 0.339
HCC-366; first compound 1.265 µM
  relative viability: 0.336
HCC-366; first compound 4 µM
  relative viability: 0.283
NCI-H2009; first compound 0.04 µM
  relative viability: 0.704
NCI-H2009; first compound 0.1265 µM
  relative viability: 0.796
NCI-H2009; first compound 0.4 µM
  relative viability: 0.694
NCI-H2009; first compound 1.265 µM
  relative viability: 0.616
NCI-H2009; first compound 4 µM
  relative viability: 0.647
NCI-H2228; first compound 0.04 µM
  relative viability: 0.731
NCI-H2228; first compound 0.1265 µM
  relative viability: 0.421
NCI-H2228; first compound 0.4 µM
  relative viability: 0.3
NCI-H2228; first compound 1.265 µM
  relative viability: 0.348
NCI-H2228; first compound 4 µM
  relative viability: 0.379
HCC-44; first compound 0.04 µM
  relative viability: 1.07
HCC-44; first compound 0.1265 µM
  relative viability: 1.14
HCC-44; first compound 0.4 µM
  relative viability: 1.05
HCC-44; first compound 1.265 µM
  relative viability: 1.08
HCC-44; first compound 4 µM
  relative viability: 1.14
NCI-H596; first compound 0.04 µM
  relative viability: 0.604
NCI-H596; first compound 0.1265 µM
  relative viability: 0.597
NCI-H596; first compound 0.4 µM
  relative viability: 0.641
NCI-H596; first compound 1.265 µM
  relative viability: 0.571
NCI-H596; first compound 4 µM
  relative viability: 0.532
NCI-H2342; first compound 0.04 µM
  relative viability: 0.654
NCI-H2342; first compound 0.1265 µM
  relative viability: 0.961
NCI-H2342; first compound 0.4 µM
  relative viability: 0.737
NCI-H2342; first compound 4 µM
  relative viability: 0.945
SK-MES-1; first compound 0.04 µM
  relative viability: 1.14
SK-MES-1; first compound 0.1265 µM
  relative viability: 1.03
SK-MES-1; first compound 0.4 µM
  relative viability: 1.1
SK-MES-1; first compound 1.265 µM
  relative viability: 0.979
SK-MES-1; first compound 4 µM
  relative viability: 1.21
NCI-H647; first compound 0.04 µM
  relative viability: 0.522
NCI-H647; first compound 0.1265 µM
  relative viability: 0.813
NCI-H647; first compound 1.265 µM
  relative viability: 0.774
NCI-H647; first compound 4 µM
  relative viability: 0.86
NCI-H1734; first compound 0.04 µM
  relative viability: 0.969
NCI-H1734; first compound 0.1265 µM
  relative viability: 0.871
NCI-H1734; first compound 0.4 µM
  relative viability: 0.833
NCI-H1734; first compound 1.265 µM
  relative viability: 0.773
NCI-H1734; first compound 4 µM
  relative viability: 0.795
SK-LU-1; first compound 0.04 µM
  relative viability: 0.783
SK-LU-1; first compound 0.1265 µM
  relative viability: 0.82
SK-LU-1; first compound 0.4 µM
  relative viability: 0.789
SK-LU-1; first compound 1.265 µM
  relative viability: 0.773
SK-LU-1; first compound 4 µM
  relative viability: 0.547
NCI-H2087; first compound 0.04 µM
  relative viability: 0.74
NCI-H2087; first compound 0.1265 µM
  relative viability: 0.692
NCI-H2087; first compound 0.4 µM
  relative viability: 0.592
NCI-H2087; first compound 1.265 µM
  relative viability: 0.928
NCI-H2087; first compound 4 µM
  relative viability: 0.76
HARA; first compound 0.04 µM
  relative viability: 0.532
HARA; first compound 0.1265 µM
  relative viability: 0.526
HARA; first compound 0.4 µM
  relative viability: 0.585
HARA; first compound 1.265 µM
  relative viability: 0.577
HARA; first compound 4 µM
  relative viability: 0.507
NCI-H1395; first compound 0.04 µM
  relative viability: 0.69
NCI-H1395; first compound 0.1265 µM
  relative viability: 0.681
NCI-H1395; first compound 0.4 µM
  relative viability: 0.733
NCI-H1395; first compound 1.265 µM
  relative viability: 0.832
NCI-H1395; first compound 4 µM
  relative viability: 0.597
NCI-H661; first compound 0.04 µM
  relative viability: 0.793
NCI-H661; first compound 0.1265 µM
  relative viability: 0.791
NCI-H661; first compound 0.4 µM
  relative viability: 0.771
NCI-H661; first compound 1.265 µM
  relative viability: 0.761
NCI-H661; first compound 4 µM
  relative viability: 0.856
NCI-H2170; first compound 0.04 µM
  relative viability: 0.837
NCI-H2170; first compound 0.1265 µM
  relative viability: 0.9
NCI-H2170; first compound 0.4 µM
  relative viability: 0.773
NCI-H2170; first compound 1.265 µM
  relative viability: 0.594
NCI-H2170; first compound 4 µM
  relative viability: 0.892
NCI-H1437; first compound 0.04 µM
  relative viability: 0.899
NCI-H1437; first compound 0.1265 µM
  relative viability: 0.897
NCI-H1437; first compound 0.4 µM
  relative viability: 0.645
NCI-H1437; first compound 1.265 µM
  relative viability: 0.78
NCI-H1437; first compound 4 µM
  relative viability: 0.613
LC-2-ad; first compound 0.04 µM
  relative viability: 0.804
LC-2-ad; first compound 0.1265 µM
  relative viability: 0.75
LC-2-ad; first compound 0.4 µM
  relative viability: 0.745
LC-2-ad; first compound 1.265 µM
  relative viability: 0.674
LC-2-ad; first compound 4 µM
  relative viability: 0.579
LOU-NH91; first compound 0.04 µM
  relative viability: 0.869
LOU-NH91; first compound 0.1265 µM
  relative viability: 0.823
LOU-NH91; first compound 0.4 µM
  relative viability: 0.723
LOU-NH91; first compound 1.265 µM
  relative viability: 0.508
LOU-NH91; first compound 4 µM
  relative viability: 0.469
NCI-H2405; first compound 0.04 µM
  relative viability: 1.07
NCI-H2405; first compound 0.1265 µM
  relative viability: 1.06
NCI-H2405; first compound 0.4 µM
  relative viability: 0.895
NCI-H2405; first compound 1.265 µM
  relative viability: 1.03
NCI-H2405; first compound 4 µM
  relative viability: 1.02
BEN; first compound 0.04 µM
  relative viability: 0.555
BEN; first compound 0.1265 µM
  relative viability: 0.624
BEN; first compound 0.4 µM
  relative viability: 0.591
BEN; first compound 1.265 µM
  relative viability: 0.552
BEN; first compound 4 µM
  relative viability: 0.532
HCC-827; first compound 0.04 µM
  relative viability: 0.829
HCC-827; first compound 0.1265 µM
  relative viability: 0.807
HCC-827; first compound 0.4 µM
  relative viability: 0.87
HCC-827; first compound 1.265 µM
  relative viability: 0.335
HCC-827; first compound 4 µM
  relative viability: 0.235
EKVX; first compound 0.04 µM
  relative viability: 0.789
EKVX; first compound 0.1265 µM
  relative viability: 0.775
EKVX; first compound 0.4 µM
  relative viability: 0.712
EKVX; first compound 4 µM
  relative viability: 0.63
